{
  "source": "patent USRE35492E",
  "about": "“Wound treatment employing biologically active ion channel forming peptides and proteins” (Magainin Pharmaceuticals, Inc., priority 1994, dated 1997)",
  "key": {"[1]": {"system": "wound healing", "details": "cited from earlier work; for restoring connective tissue deposition / restoring wound contraction: antagonism of cortisone inhibition of wound healing"}, "[2]": {"system": "wound healing in rats (sponge disc implants)", "test": "Subcutaneous polyvinylchloride sponge disc implants in rats: collagen content and breaking strength", "type": "in vivo, rat", "from_the_text": "(§1) Twenty-two male rats weighing between 300 g and 325 g were anesthetized, after which their backs and abdomens were shaved and washed with 70% ethanol. Three modified polyvinylchloride sponge discs 2 mm thick and 15 mm in diameter were implanted in each rat abdominally in subcutaneous pockets made under the skin. Two of the implants were cut in half and rejoined before the implantation, and the remaining disc was sandwiched between two silicone discs which forced granulation tissue infiltration to occur from the periphery of the disc. A single 15 mm×15 mm square full excision wound was made on the back and the wound edges tattooed.\n(§2) The rats were then divided into four groups. A first, or control, group of four rats received sham injections daily. A second group of four rats received daily intramuscular injections of 10 mg of cortisone acetate. Cortisone is known to be an inhibitor of wound healing. A third group of seven rats received daily intramuscular injections of 0.3 mg of amide-terminated Magainin II. A fourth group of seven rats received daily intramuscular injections of 10 mg of cortisone acetate and 0.3 mg of Magainin II at separate sites. At seven days, rat weights were recorded, wound sizes measured, and the implants harvested. The staple which joined the two disc halves together was carefully removed and the breaking strength measured. Collagen content from the implant halves from each treatment group was measured by weighing the pepsin extracted native collagen. The sponge halves are homogenized in 0.5M ice-cold acetic acid containing 0.1 mg of pepsin per ml. The homogenate was stirred for 24 hours at 4° C., centrifuged, and supernatants saved. The native solubilized collagen was isolated by adding sodium chloride to 10% w/v. The salt precipitate was collected by centrifugation (10,000× g for 10 min.) and then taken up in 145 mM potassium phosphate buffer pH7.6, exhaustively dialyzed against 1 mM HCl, lyophilized and its dry weight recorded. Confirmation of collagen purity was made by SDS polyacrylamide gel electrophoresis. Pepsin digestion extracts only native collagen, needed for the formation of collagen fibers. The accumulations of collagen in the early stages of healing are responsible for gain in wound tensile strength. Collagen content from the implants taken from the group treated with cortisone acetate alone averaged 0.82 mg/sponge, as compared with 3.43 mg/sponge for the control group.\nThe group treated with Magainin II alone has a average wound breaking strength of 415 g."}, "[3]": {"system": "full excision wound in rats", "test": "15 mm×15 mm full excision wound on the back of rats: wound contraction", "type": "in vivo, rat", "details": "for average wound contraction: seven days", "from_the_text": "as §1, §2"}, "[4]": {"details": "substance alone, daily intramuscular injections (Magainin II 0.3 mg; cortisone acetate 10 mg), implants harvested at seven days, control group 3.43"}},
  "note": "No end group written: not given here.",
  "data": [
    {"compound": "C[C@]12CCC(=O)C=C1CC[C@@H]1[C@@H]2C(=O)C[C@@]2(C)[C@H]1CC[C@]2(O)C(=O)CO", "note": "[Cortisone]", "values": [
      {"measurement": "effect on wound healing", "setting": "[1]; known", "result": "inhibitor"}
    ]},
    {"compound": "CC(=O)OCC(=O)[C@@]1(O)CC[C@H]2[C@@H]3CCC4=CC(=O)CC[C@]4(C)[C@H]3C(=O)C[C@@]21C", "note": "[cortisone acetate, reference compound]", "values": [
      {"measurement": "average collagen content of implants", "setting": "[2]; [4]", "result": 0.82, "unit": "mg/sponge"}
    ]},
    {"compound": "GIGKFLHSAKKFGKAFVGEIMNS-NH2 [Magainin II]", "values": [
      {"measurement": "average collagen content of implants", "setting": "[2]; 0.3 mg Magainin II plus 10 mg cortisone acetate daily intramuscular at separate sites, seven days, cortisone acetate alone 0.82", "result": 3.20, "unit": "mg/sponge"},
      {"measurement": "average wound breaking strength", "setting": "[2]; 0.3 mg Magainin II plus 10 mg cortisone acetate daily intramuscular at separate sites, seven days, cortisone acetate alone 195", "result": 320, "unit": "g"},
      {"measurement": "average collagen content of implants", "setting": "[2]; [4]", "result": 3.82, "unit": "mg/sponge"},
      {"measurement": "stimulating wound healing", "setting": "[3]; rats", "result": "effective"},
      {"measurement": "cortisone inhibition of wound healing (collagen deposition and wound contraction)", "setting": "[3]; rats treated with cortisone acetate and Magainin II", "result": "antagonistic"},
      {"measurement": "average wound contraction", "setting": "[3]; rats, 0.3 mg Magainin II plus 10 mg cortisone acetate daily intramuscular at separate sites, cortisone acetate alone 28", "result": 53, "unit": "%"},
      {"measurement": "average wound contraction", "setting": "[3]; rats, substance alone, daily intramuscular injections (Magainin II 0.3 mg; cortisone acetate 10 mg), control group 67", "result": 65, "unit": "%"}
    ]},
    {"compound": "Vitamin A", "values": [
      {"measurement": "restoring connective tissue deposition", "setting": "[1]", "result": "effective"},
      {"measurement": "restoring wound contraction", "setting": "[1]", "result": "ineffective"}
    ]},
    {"compound": "growth hormone: other antagonist of cortisone inhibition, effective in restoring connective tissue deposition", "values": [
      {"measurement": "restoring connective tissue deposition", "setting": "[1]", "result": "effective"},
      {"measurement": "restoring wound contraction", "setting": "[1]", "result": "ineffective"}
    ]}
  ]
}
